The text below walks through data of patent EP0066987B1, “N-(aryloxyalkyl)-N'-(amino-alkyl) ureas” (A.H. ROBINS COMPANY, INCORPORATED, priority 1981, dated 1982).

The nature of this data set: Side effects compared with quinidine and lidocaine. As to conditions: as compared to quinidine and lidocaine.

Consider `CC(C)N(CCOc1cc(Cl)cc(Cl)c1)C(=O)NCCN(C)C.O=C(O)/C=C\C(=O)O` [Example 3, N-[2-(3,5-Dichlorophenoxy)ethyl]-N'-[2-(dimethylamino)ethyl]-N-(1-methylethyl)urea, maleate [1:1]], for which the CNS side effects result is “minimal CNS side effects”.
